Data reported in patent US11040976B2, “Substrate selective inhibitors of insulin-degrading enzyme (IDE) and uses thereof” (President and Fellows of Harvard College, priority 2015, dated 2021).

Target: T1, recombinant human IDE42-1019 (Homo sapiens, UniProt P14735)
T1 construct: recombinant human IDE42-1019 (R&D Systems); purchased R&D Systems
T1 sequence (P14735 42-1019): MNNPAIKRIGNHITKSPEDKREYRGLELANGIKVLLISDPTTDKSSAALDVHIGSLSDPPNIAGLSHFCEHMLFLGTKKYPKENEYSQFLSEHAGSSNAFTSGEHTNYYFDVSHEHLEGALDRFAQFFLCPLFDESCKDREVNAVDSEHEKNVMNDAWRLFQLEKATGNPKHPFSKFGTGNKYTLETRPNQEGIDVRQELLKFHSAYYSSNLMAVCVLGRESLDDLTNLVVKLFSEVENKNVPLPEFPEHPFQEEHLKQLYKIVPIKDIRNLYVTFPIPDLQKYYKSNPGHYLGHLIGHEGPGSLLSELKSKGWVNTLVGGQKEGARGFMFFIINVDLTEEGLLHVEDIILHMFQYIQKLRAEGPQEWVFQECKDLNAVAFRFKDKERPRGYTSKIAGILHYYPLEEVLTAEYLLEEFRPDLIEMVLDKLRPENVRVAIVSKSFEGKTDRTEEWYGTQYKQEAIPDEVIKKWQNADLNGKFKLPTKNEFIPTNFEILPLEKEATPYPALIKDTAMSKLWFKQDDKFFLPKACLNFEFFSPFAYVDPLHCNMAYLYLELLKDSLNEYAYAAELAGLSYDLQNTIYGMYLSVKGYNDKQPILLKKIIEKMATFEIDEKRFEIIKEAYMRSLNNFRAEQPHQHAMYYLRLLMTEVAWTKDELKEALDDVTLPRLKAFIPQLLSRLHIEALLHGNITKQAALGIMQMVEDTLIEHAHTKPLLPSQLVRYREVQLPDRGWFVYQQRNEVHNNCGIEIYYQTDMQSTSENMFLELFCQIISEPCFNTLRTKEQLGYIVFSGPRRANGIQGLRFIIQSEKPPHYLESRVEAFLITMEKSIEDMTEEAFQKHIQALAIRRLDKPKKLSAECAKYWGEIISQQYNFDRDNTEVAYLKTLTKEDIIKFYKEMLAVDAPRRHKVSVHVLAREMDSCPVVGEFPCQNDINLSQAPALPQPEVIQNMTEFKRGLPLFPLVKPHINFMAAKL
Assay: Protease assay with fluorogenic peptide substrate Mca-[…](Dnp)-OH
Type: biochemical
Conditions: fluorogenic peptide Mca-RPPGFSAFK(Dnp)-OH; apparent IC50 for compounds with submaximal inhibition; read-out: IC50 (μM) Proteolysis
Protocol: The proteases IDE42-1019, recombinant human IDE42-1019 (R&D Systems), neprilysin (R&D), and angiotensin-converting enzyme (R&D) were assayed using the fluorophore/quencher-tagged peptide substrate Mca-[…](Dnp)-OH (SEQ ID NO: 24) (R&D) according to the manufacturer's instructions and using the recommended buffers (fluorophore Mca=(7-methoxycourmarin-4-yl)acetyl and quencher Dnp=2,4-dinitrophenyl). For IDE the recommended buffer is 50 mM Tris pH 7.5, 1 M NaCl. The enzyme mixtures (48 μL) were transferred to a 96-well plate and combined with 2 μL of inhibitor in DMSO solutions, in 3-fold dilution series. The mixtures were allowed to equilibrate for 10 minutes and the enzymatic reaction was started by addition of substrate peptide in assay buffer (50 μL), mixed, and monitored on a fluorescence plate reader (excitation at 320 nm, emission at 405 nm). Similarly, thimet oligopeptidase (R&D) and neurolysin (R&D) were assayed using substrate Mca-PLGPK(Dnp)-OH (SEQ ID NO: 25) (R&D) according to the manufacturer's instructions and using the recommended buffers. Matrix metalloproteinase-1 (R&D) was activated and assayed according to the manufacturer's instructions with substrate Mca-KPLGL-Dpa-AR-NH2 (SEQ ID NO: 20) (R&D) (quencher DPA=N-3-(2,4,dinitrophenyl)-L-2,3-diaminopropionyl). All assay data points were obtained in duplicate.

Row | Compound | IC50 [µM]
1 | Cc1cccc(-c2ccc(C3CCN(S(=O)(=O)c4ccc5c(c4)OCCO5)CC3)cc2)c1C [A01] | > 30
2 | Cc1cccc(-c2ccc(C3CCN(S(=O)(=O)c4ccc5c(c4)OCO5)CC3)cc2)c1C [A02] | 12
3 | Cc1cccc(-c2ccc(C3CCN(S(=O)(=O)c4cc5ccccc5o4)CC3)cc2)c1C [A03] | > 100
4 | Cc1cccc(-c2ccc(C3CCN(S(=O)(=O)c4ccccc4Oc4ccccc4)CC3)cc2)c1C [A04] | 12
5 | Cc1cccc(-c2ccc(C3CCN(S(=O)(=O)c4cccc(Oc5ccc(F)cc5)c4)CC3)cc2)c1C [A05] | 9
6 | Cc1cccc(-c2ccc(C3CCN(S(=O)(=O)c4cccc(C(=O)N(C)C)c4)CC3)cc2)c1C [A06] | 1
7 | Cc1cccc(-c2ccc(C3CCN(S(=O)(=O)c4ccc(F)c5ncccc45)CC3)cc2)c1C [A07] | 3
8 | Cc1cccc(-c2ccc(C3CCN(S(=O)(=O)c4ccc5c(c4)Cc4ccccc4-5)CC3)cc2)c1C [A08] | 25
9 | Cc1cccc(-c2ccc(C3CCN(S(=O)(=O)c4ccc5c(c4)CCC(=O)N5)CC3)cc2)c1C [A10] | 33
10 | Cc1cccc(-c2ccc(C3CCN(S(=O)(=O)c4cccc5c(N(C)C)cccc45)CC3)cc2)c1C [A11] | 10
11 | Cc1cc2c(cc1S(=O)(=O)N1CCC(c3ccc(-c4cccc(C)c4C)cc3)CC1)OCC(=O)N2 [A13] | 10
12 | Cc1cccc(-c2ccc(C3CCN(S(=O)(=O)c4ccc5c(ccn5C)c4)CC3)cc2)c1C [A14] | 10
13 | Cc1cccc(-c2ccc(C3CCN(S(=O)(=O)c4ccc5[nH]c(=O)[nH]c5c4)CC3)cc2)c1C [A15] | 4
14 | Cc1cccc(-c2ccc(C3CCN(S(=O)(=O)c4cccnc4)CC3)cc2)c1C [A16] | 12
15 | Cc1cccc(-c2ccc(C3CCN(S(=O)(=O)CCc4ccncc4)CC3)cc2)c1C [A17] | 5
16 | Cc1cccc(-c2ccc(C3CCN(S(=O)(=O)c4cc(C(F)(F)F)cc(C(F)(F)F)c4)CC3)cc2)c1C [A18] | 12
17 | Cc1cccc(-c2ccc(C3CCN(S(=O)(=O)N4CC(C)OC(C)C4)CC3)cc2)c1C (centres unmarked) [A19] | 4
18 | COc1ccc(C(=O)N2CCC(c3ccc(-c4cccc(C)c4C)cc3)CC2)c(OC)c1 [A21] | 1
19 | Cc1cccc(-c2ccc(C3CCN(C(=O)c4cccc(OCc5ccccc5)c4)CC3)cc2)c1C [A22] | 1
20 | Cc1cccc(-c2ccc(C3CCN(C(=O)c4ccccc4Oc4ccccc4)CC3)cc2)c1C [A23] | 10
21 | Cc1cccc(-c2ccc(C3CCN(C(=O)c4ccc5c(c4)OCCN5C)CC3)cc2)c1C [A25] | 0.9
22 | Cc1cccc(-c2ccc(C3CCN(C(=O)c4ccc5occc5c4)CC3)cc2)c1C [A26] | 6
23 | Cc1cccc(-c2ccc(C3CCN(C(=O)C4c5ccccc5-c5ccccc54)CC3)cc2)c1C [A27] | 12
24 | Cc1cccc(-c2ccc(C3CCN(C(=O)c4ccc5ccccc5n4)CC3)cc2)c1C [A28] | 1

Row | Compound | IC50 [µM]
25 | Cc1cccc(-c2ccc(C3CCN(C(=O)Oc4cccc5ccccc45)CC3)cc2)c1C [A29] | > 50
26 | Cc1cccc(-c2ccc(C3CCN(C(=O)Oc4ccc5ccccc5c4)CC3)cc2)c1C [A30] | 12
27 | Cc1cccc(-c2ccc(C3CCN(Cc4ccc(Oc5ccccc5)cc4)CC3)cc2)c1C [A31] | 12
28 | Cc1cccc(-c2ccc(C3CCN(Cc4cccc(Oc5ccccc5)c4)CC3)cc2)c1C [A32] | 12
29 | Cc1cccc(-c2ccc(C3CCN(Cc4ccccc4Oc4ccccc4)CC3)cc2)c1C [A33] | 7
30 | Cc1cccc(-c2ccc(C3CCN(Cc4ccc(OCc5ccccc5)cc4)CC3)cc2)c1C [A34] | > 50
31 | Cc1cccc(-c2ccc(C3CCN(Cc4ccc(F)c5ccccc45)CC3)cc2)c1C [A35] | 12
32 | Cc1cccc(-c2ccc(C3CCN(Cc4ccc5ccccc5n4)CC3)cc2)c1C [A39] | 12
33 | Cc1cccc(-c2ccc(C3CCN(C(=O)c4ccc5c(c4)C4(OC5=O)c5ccc(O)cc5Oc5cc(O)ccc54)CC3)cc2)c1C [A40] | 12
34 | Cc1cccc(-c2ccc([C@@H]3[C@@H](CO)N4C/C=C\CN(S(=O)(=O)c5ccccc5C)C[C@@H]34)cc2)c1 [B1] | 0.2
35 | Cc1cccc(-c2ccc([C@@H]3[C@@H](CO)N4CCCCN(S(=O)(=O)c5ccccc5C)C[C@@H]34)cc2)c1 [B2] | 0.4
36 | Cc1ccc(-c2ccc([C@@H]3[C@@H](CO)N4CCCCN(S(=O)(=O)c5ccccc5C)C[C@@H]34)cc2)cc1C [B3] | 0.2
37 | Cc1ccccc1S(=O)(=O)N1CCCCN2[C@H](CO)[C@@H](c3ccc(-c4cccc(C(F)(F)F)c4)cc3)[C@@H]2C1 [B5] | 7.5
38 | Cc1ccccc1S(=O)(=O)N1CCCCN2[C@H](CO)[C@@H](c3ccc(-c4ccccc4)cc3)[C@@H]2C1 [B6] | 1
39 | Cc1ccccc1S(=O)(=O)N1CCCCN2[C@H](CO)[C@@H](c3ccc(-c4cccc(O)c4)cc3)[C@@H]2C1 [B7] | 7.5
40 | Cc1cccc(-c2ccc([C@@H]3[C@@H](CO)N4CCCCN(S(=O)(=O)c5ccccc5C)C[C@@H]34)cc2)c1 [BRD-297] | 0.25
41 | O=C(c1ccncc1)N1CC2NC(C1)C2c1ccc(/C=C/c2ccccc2)cc1 (centres unmarked) [C10] | 10
42 | CCC(=O)N1[C@H](CO)[C@H](c2ccc(-c3ccccc3OC)cc2)[C@@H]1CNC(C)=O [D3] | 7
43 | CCC(=O)N1[C@H](CO)[C@H](c2ccc(-c3ccccc3OC)cc2)[C@H]1CNC(C)=O [D4] | > 20
44 | COc1ccccc1-c1ccc([C@H]2[C@@H](CO)N[C@@H]2CNC(=O)C2CCCC2)cc1 [D5] | 7.5
45 | COc1ccccc1-c1ccc([C@@H]2[C@@H](C#N)N(C(=O)CN(C)C)[C@H]2CO)cc1 [D6] | 5
46 | Cc1cccc(-c2ccc([C@H]3C4CNC/C=C\CN4[C@@H]3CO)cc2)c1C (some centres unmarked) [Int211] | > 10
47 | Cc1ccccc1S(=O)(=O)N1CCN(c2ccc(-c3cccc(C)c3C)cc2)CC1 [J1] | 1
48 | Cc1ccccc1S(=O)(=O)N1CCC(O)(c2ccc(-c3cccc(C)c3C)cc2)CC1 [J2] | 2.5

Same assay, conditions: fluorogenic peptide Mca-RPPGFSAFK(Dnp)-OH; plateau at high inhibitor concentration

Row | Compound | Imax (%) Proteolysis (inhibition maximum) [%]
49 | Cc1cccc(-c2ccc([C@@H]3[C@@H](CO)N4CCCCN(S(=O)(=O)c5ccccc5C)C[C@@H]34)cc2)c1 [B2] | 65
50 | Cc1ccccc1-c1ccc([C@@H]2[C@@H](CO)N3CCCCN(S(=O)(=O)c4ccccc4C)C[C@@H]23)cc1 [B13] | 65

Same assay, conditions: fluorogenic peptide Mca-RPPGFSAFK(Dnp)-OH; plateau at high inhibitor concentration; read-out: Imax (%) Proteolysis (inhibition maximum)

Row | Compound | Emax [%]
51 | Cc1ccc(-c2ccc([C@@H]3[C@@H](CO)N4CCCCN(S(=O)(=O)c5ccccc5C)C[C@@H]34)cc2)cc1C [B3] | 72
52 | Cc1ccccc1S(=O)(=O)N1CCCCN2[C@H](CO)[C@@H](c3ccc(-c4ccc5c(c4)OCO5)cc3)[C@@H]2C1 [B4] | 100
53 | Cc1ccccc1S(=O)(=O)N1CCCCN2[C@H](CO)[C@@H](c3ccc(-c4ccccc4)cc3)[C@@H]2C1 [B6] | 65
54 | Cc1ccccc1S(=O)(=O)N1CCCCN2[C@H](CO)[C@@H](c3ccc(-c4cccc(O)c4)cc3)[C@@H]2C1 [B7] | 100
55 | Cc1cc(C)cc(-c2ccc([C@@H]3[C@@H](CO)N4CCCCN(S(=O)(=O)c5ccccc5C)C[C@@H]34)cc2)c1 [B9] | 72
56 | Cc1ccccc1S(=O)(=O)N1CCCCN2[C@H](CO)[C@@H](c3ccc(-c4cccc(F)c4)cc3)[C@@H]2C1 [B10] | 65
57 | Cc1ccccc1-c1ccc([C@@H]2[C@@H](CO)N3CCCCN(S(=O)(=O)c4ccccc4C)C[C@@H]23)cc1 [B11] | 65
58 | Cc1ccc(C)c(-c2ccc([C@@H]3[C@@H](CO)N4CCCCN(S(=O)(=O)c5ccccc5C)C[C@@H]34)cc2)c1 [B12] | 65
59 | Cc1ccccc1S(=O)(=O)N1CCCCN2[C@H](CO)[C@@H](c3ccc(-c4cccc(F)c4F)cc3)[C@@H]2C1 [B14] | 90
60 | O=C(c1ccncc1)N1CC2NC(C1)C2c1ccc(/C=C/c2ccccc2)cc1 (centres unmarked) [C10] | 100
61 | Cc1cccc(-c2ccc([C@@H]3[C@H](CO)N4CCCCN(S(=O)(=O)c5ccccc5F)C[C@@H]34)cc2)c1 [Compound 807] | 30
62 | CCC(=O)N1[C@H](CO)[C@H](c2ccc(-c3ccccc3OC)cc2)[C@@H]1CNC(C)=O [D3] | 50
63 | COc1ccccc1-c1ccc([C@H]2[C@@H](CO)N[C@@H]2CNC(=O)C2CCCC2)cc1 [D5] | 60
64 | COc1ccccc1-c1ccc([C@@H]2[C@@H](C#N)N(C(=O)CN(C)C)[C@H]2CO)cc1 [D6] | 70

Same assay, conditions: fluorogenic peptide, FIG. 12; read-out: IC50 for proteolysis

Row | Compound | IC50 [µM]
65 | Cc1ccccc1S(=O)(=O)N1CCCCN2[C@H](CO)[C@@H](c3ccc(-c4cccc(C)c4C)cc3)[C@@H]2C1 [B8] | 0.002
